This passage reports T/C results from PubChem BioAssay AID330 (DTP/NCI, 2004).

“And” between values parts separate entries of the source, which are not always exact repeats. Equal entries are not always repeated. Toxic doses and inconclusive results are not listed.

The assay has as its system P388 leukemia ip, CD2F1 mice, survival T/C. Nature of the assay: NCI In Vivo Anticancer Drug Screen. Data for tumor model P388 Leukemia (intraperitoneal) in CD2F1 (CDF1) mice. Particulars: endpoint: median survival time, higher = longer survival. The gist of the method: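 Mice carrying the transplanted tumor received test compound or vehicle. Survival was recorded in each group, and the value is the treated-group measurement divided by that of the vehicle-treated control group.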

[1] abbreviates: dose: 50.0 mg/kg/injection, schedule: Q01DX009 (ip), vehicle: saline with Tween-80.
The mark [2] stands for this setting: dose: 100.0 mg/kg/injection, schedule: Q01DX009 (ip), vehicle: saline with Tween-80.

As for `N[C@H](C(=O)O)[C@@H]1CC(Cl)=NO1`, the T/C was 105 % of control and 108 % of control (dose: 0.03 mg/kg/injection, schedule: Q01DX009 (ip), vehicle: saline); 113 % of control (dose: 0.06 mg/kg/injection, schedule: Q01DX009 (ip), vehicle: saline); 120 % of control (dose: 0.13 mg/kg/injection, schedule: Q01DX009 (ip), vehicle: saline); 150 % of control (dose: 0.25 mg/kg/injection, schedule: Q01DX009 (ip), vehicle: saline); 155 % of control (dose: 0.5 mg/kg/injection, schedule: Q01DX009 (ip), vehicle: saline); 174 % of control (dose: 0.63 mg/kg/injection, schedule: Q01DX009 (ip), vehicle: saline). The T/C was 155 % of control (dose: 0.75 mg/kg/injection, schedule: Q01DX009 (ip), vehicle: saline); 150 % of control and 171 % of control (dose: 1.0 mg/kg/injection, schedule: Q01DX009 (ip), vehicle: saline); 121 % of control (dose: 1.0 mg/kg/injection, schedule: Q01DX009 (ip), vehicle: water); 213 % of control (dose: 1.25 mg/kg/injection, schedule: Q01DX009 (ip), vehicle: saline); 165 % of control and 179 % of control and 192 % of control (dose: 1.94 mg/kg/injection, schedule: Q01DX009 (ip), vehicle: saline); 119 % of control (dose: 2.0 mg/kg/injection, schedule: Q01DX005 (ip), vehicle: saline). The T/C runs as follows: (dose: 2.0 mg/kg/injection, schedule: Q01DX005 (ip), vehicle: water) 111 % of control; (dose: 2.0 mg/kg/injection, schedule: Q01DX005 (iv), vehicle: saline) 119 % of control; (dose: 2.0 mg/kg/injection, schedule: Q01DX009 (ip), vehicle: saline) 152 % of control and 164 % of control and 198 % of control; (dose: 2.0 mg/kg/injection, schedule: Q01DX009 (ip), vehicle: water) 153 % of control; (dose: 2.3 mg/kg/injection, schedule: Q01DX009 (ip), vehicle: saline) 190 % of control; (dose: 2.5 mg/kg/injection, schedule: Q01DX009 (ip), vehicle: saline) 235 % of control. The T/C (dose: 3.0 mg/kg/injection, schedule: Q01DX005 (iv), vehicle: saline) was 119 % of control; the T/C (dose: 3.0 mg/kg/injection, schedule: Q01DX009 (ip), vehicle: saline) is 175 % of control and 180 % of control and 238 % of control; the T/C (dose: 3.12 mg/kg/injection, schedule: Q01DX005 (ip), vehicle: water) was 155 % of control; the T/C (dose: 3.24 mg/kg/injection, schedule: Q01DX009 (ip), vehicle: saline) was 177 % of control and 189 % of control and 203 % of control; the T/C (dose: 3.5 mg/kg/injection, schedule: Q01DX009 (ip), vehicle: saline) was 194 % of control; the T/C (dose: 4.0 mg/kg/injection, schedule: Q01DX005 (ip), vehicle: saline) was 161 % of control. In addition, the T/C runs as follows: (dose: 4.0 mg/kg/injection, schedule: Q01DX005 (iv), vehicle: saline) 119 % of control; (dose: 4.0 mg/kg/injection, schedule: Q01DX009 (ip), vehicle: saline) 161 % of control and 190 % of control; (dose: 4.0 mg/kg/injection, schedule: Q01DX009 (ip), vehicle: water) 112 % of control; (dose: 4.32 mg/kg/injection, schedule: Q01DX005 (ip), vehicle: saline) 154 % of control; (dose: 5.0 mg/kg/injection, schedule: Q01DX005 (ip), vehicle: saline) 158 % of control; (dose: 5.0 mg/kg/injection, schedule: Q01DX009 (ip), vehicle: saline) 235 % of control. Moreover, the T/C by setting is: (dose: 5.3 mg/kg/injection, schedule: Q01DX009 (ip), vehicle: saline) 203 % of control; (dose: 5.4 mg/kg/injection, schedule: Q01DX009 (ip), vehicle: saline) 163 % of control and 188 % of control and 204 % of control; (dose: 6.0 mg/kg/injection, schedule: Q01DX009 (ip), vehicle: saline) 173 % of control and 186 % of control and 319 % of control; (dose: 6.25 mg/kg/injection, schedule: Q01DX005 (ip), vehicle: water) 150 % of control and 168 % of control; (dose: 7.2 mg/kg/injection, schedule: Q01DX005 (ip), vehicle: saline) 156 % of control; (dose: 8.0 mg/kg/injection, schedule: Q01DX005 (ip), vehicle: saline) 171 % of control and 182 % of control. The T/C was 119 % of control (dose: 8.0 mg/kg/injection, schedule: Q01DX005 (iv), vehicle: saline); 186 % of control and 210 % of control (dose: 8.0 mg/kg/injection, schedule: Q01DX009 (ip), vehicle: saline); 184 % of control (dose: 8.0 mg/kg/injection, schedule: Q01DX009 (ip), vehicle: water); 99 % of control (dose: 9.0 mg/kg/injection, schedule: Q01DX009 (ip), vehicle: saline); 164 % of control (dose: 10.0 mg/kg/injection, schedule: Q01DX005 (ip), vehicle: saline); 220 % of control (dose: 12.0 mg/kg/injection, schedule: Q01DX005 (ip), vehicle: saline). The T/C runs as follows: (dose: 12.0 mg/kg/injection, schedule: Q01DX005 (iv), vehicle: saline) 171 % of control; (dose: 12.5 mg/kg/injection, schedule: Q01DX005 (ip), vehicle: water) 155 % of control and 182 % of control; (dose: 15.0 mg/kg/injection, schedule: Q01DX009 (ip), vehicle: saline) 98 % of control and 100 % of control; (dose: 16.0 mg/kg/injection, schedule: Q01DX005 (ip), vehicle: saline) 164 % of control and 181 % of control; (dose: 16.0 mg/kg/injection, schedule: Q01DX005 (ip), vehicle: water) 152 % of control and 163 % of control; (dose: 16.0 mg/kg/injection, schedule: Q01DX009 (ip), vehicle: saline) 102 % of control and 218 % of control. Further, the T/C (dose: 16.0 mg/kg/injection, schedule: Q01DX009 (ip), vehicle: water) was 198 % of control; the T/C (dose: 20.0 mg/kg/injection, schedule: Q01DX005 (ip), vehicle: saline) was 169 % of control and 176 % of control; the T/C (dose: 20.0 mg/kg/injection, schedule: Q04DX003 (ip), vehicle: saline) is 158 % of control; the T/C (dose: 24.0 mg/kg/injection, schedule: Q01DX005 (ip), vehicle: saline) is 222 % of control; the T/C (dose: 24.0 mg/kg/injection, schedule: Q01DX005 (iv), vehicle: saline) was 108 % of control; the T/C (dose: 25.0 mg/kg/injection, schedule: Q01DX005 (ip), vehicle: water) is 155 % of control and 187 % of control. Also, the T/C reads like this: (dose: 32.0 mg/kg/injection, schedule: Q01DX005 (ip), vehicle: saline) 225 % of control; (dose: 32.0 mg/kg/injection, schedule: Q01DX005 (ip), vehicle: water) 170 % of control; (dose: 40.0 mg/kg/injection, schedule: Q04DX003 (ip), vehicle: saline) 180 % of control and 196 % of control; (dose: 50.0 mg/kg/injection, schedule: Q04DX003 (ip), vehicle: other) 163 % of control; (dose: 80.0 mg/kg/injection, schedule: Q04DX003 (ip), vehicle: saline) 150 % of control and 190 % of control and 297 % of control; (dose: 100.0 mg/kg/injection, schedule: Q04DX003 (ip), vehicle: other) 161 % of control. Further, under “dose: 160.0 mg/kg/injection, schedule: Q04DX003 (ip), vehicle: saline”, the T/C was 118 % of control and 164 % of control and 250 % of control.

Regarding `OCCN1OCCCC1c1ccccc1` (stereo unspecified), the T/C was 94 % of control under setting [1] and 92 % of control under setting [2].

For the compound `Nc1cc(=O)c2n[nH]nc2[nH]1`, the T/C runs as follows: (dose: 50.0 mg/kg/injection, schedule: Q04DX003 (ip), vehicle: saline with Tween-80) 100 % of control; (dose: 100.0 mg/kg/injection, schedule: Q04DX003 (ip), vehicle: saline with Tween-80) 108 % of control; (dose: 200.0 mg/kg/injection, schedule: Q04DX003 (ip), vehicle: saline with Tween-80) 108 % of control; (dose: 400.0 mg/kg/injection, schedule: Q04DX003 (ip), vehicle: saline with Tween-80) 107 % of control.

For `COc1cccc(C)c1NC1=NCCO1`, the T/C (dose: 0.78 mg/kg/injection, schedule: Q04DX003 (ip), vehicle: saline with Tween-80) was 100 % of control; the T/C (dose: 1.56 mg/kg/injection, schedule: Q04DX003 (ip), vehicle: saline with Tween-80) is 100 % of control; the T/C (dose: 3.13 mg/kg/injection, schedule: Q04DX003 (ip), vehicle: saline with Tween-80) was 104 % of control.

On to `Cc1ccc(S(=O)(=O)C(=S)SCc2ccccc2)cc1`, for which the T/C was 106 % of control (dose: 50.0 mg/kg/injection, schedule: Q01DX005 (ip), vehicle: Klucel (hydroxypropylcellulose) (HPC)); 105 % of control (dose: 100.0 mg/kg/injection, schedule: Q01DX005 (ip), vehicle: Klucel (hydroxypropylcellulose) (HPC)); 96 % of control (dose: 200.0 mg/kg/injection, schedule: Q01DX005 (ip), vehicle: Klucel (hydroxypropylcellulose) (HPC)).

Turning to `COC1CC(C23C4CC2C3C2CC/C=C\CCC24)CC1OC` (stereo unspecified), the T/C reads like this: under setting [1], 98 % of control; under setting [2], 100 % of control; (dose: 200.0 mg/kg/injection, schedule: Q01DX009 (ip), vehicle: saline with Tween-80) 102 % of control.
